Measurements published in publication PMC6299220 (mBio, 2018).
Values after ≈ are worked out from the molar mass of the structure shown. Read-outs that look alike come from different tables or passages of the source.

How the values were obtained:
M. tuberculosis H37Rv = assay: microbe, parasite or virus in culture; type: cell-based, Mycobacterium tuberculosis
in vitro [1] = settings: African green monkey
[2] = mouse, microsomes
in vitro [3] = settings: mouse, microsomes
physchem = settings: pH 7.4, aqueous buffer, kinetic from dmso stock
[4] = Mycobacterium tuberculosis, H37RV
[5] = MLM stability t1/2 without NADPH

| SMILES | MIC (M. tuberculosis H37Rv; [4]) | CC50 (in vitro [1]) | further results |
| --- | --- | --- | --- |
| [2H]C([2H])([2H])n1ncc2ccc(NS(=O)(=O)CCCCOC)cc21 [5a-32, 4-Methoxy-N-(1-(methyl-d3)-1H-indazol-6-yl)butane-1-sulfonamide] | > 100 µM | > 100 µM | – |
| Cn1ncc2ccc(NS(=O)(=O)CC3CCCCC3)cc21 [5a-29, 1-Cyclohexyl-N-(1-methyl-1H-indazol-6-yl)methanesulfonamide] | > 100 µM | – | – |
| CCOC(=O)Nc1ccc2cnn(C)c2c1 [5d-1, Ethyl (1-methyl-1H-indazol-6-yl)carbamate] | > 100 µM | 110 µM | MLM stability clint [2]: 597 μl/mi/mg protein; half-life (in vitro [3]; MLM stability t1/2): 1.16 min; solubility kinetic (physchem): > 500 µM |
| COCCCCS(=O)(=O)Nc1ccc2cnn(C)c2c1 [5a-15, 4-Methoxy-N-(1-methyl-1H-indazol-6-yl)butane-1-sulfonamide] | > 100 µM | > 100 µM | MIC (M. tuberculosis H37Rv): >100 µM |
| CCCCS(=O)(=O)N(C)c1ccc2cnn(C)c2c1 [5e, N-Methyl-N-(1-methyl-1H-indazol-6-yl)butane-1-sulfonamide] | > 100 µM | – | – |
| CCCCS(=O)(=O)Nc1ccc2cnn(Cc3ccccc3)c2c1 [5a-7, N-(1-Benzyl-1H-indazol-6-yl)butane-1-sulfonamide] | > 100 µM | – | MLM stability clint [2]: 241 μl/mi/mg protein; half-life (in vitro [3]; MLM stability t1/2): 2.88 min; half-life (in vitro [3]; [5]): > 3060 min; solubility kinetic (physchem): 33.8 µM (≈ 11.6 µg/mL) |
| Cc1ccc(S(=O)(=O)Nc2ccc3cnn(C)c3c2)cc1 [5a-20, 4-Methyl-N-(1-methyl-1H-indazol-6-yl)benzenesulfonamide] | 50 µM (≈ 15.1 µg/mL) | – | – |
| COCCC(C)CCS(=O)(=O)Nc1ccc2cnn(C)c2c1 (stereo not shown) [5a-16, 5-Methoxy-3-methyl-N-(1-methyl-1H-indazol-6-yl)pentane-1-sulfonamide] | > 100 µM | – | – |
| Cn1ncc2ccc(NS(=O)(=O)N3CCCCC3)cc21 [5a-28, N-(1-Methyl-1H-indazol-6-yl)piperidine-1-sulfonamide] | > 100 µM | – | – |
| Cn1ncc2ccc(NS(=O)(=O)C3CCCC3)cc21 [5a-25, N-(1-Methyl-1H-indazol-6-yl)cyclopentanesulfonamide] | > 100 µM | – | – |
| CO[C@H]1/C=C/O[C@@]2(C)Oc3c(C)c(O)c4c(O)c(c(/C=N/N5CCN(C)CC5)c(O)c4c3C2=O)NC(=O)/C(C)=C\C=C\[C@H](C)[C@H](O)[C@@H](C)[C@@H](O)[C@@H](C)[C@H](OC(C)=O)[C@@H]1C [RIF, rifampin] | 0.001 µM (≈ 0.000823 µg/mL) | – | – |
| CCCS(=O)(=O)Nc1ccc2cnn(C)c2c1 [5a-10, N-(1-Methyl-1H-indazol-6-yl)propane-1-sulfonamide] | 12.5 µM (≈ 3.17 µg/mL) | – | – |
| Cn1ncc2ccc(NS(=O)(=O)Cc3ccccc3)cc21 [5a-21, N-(1-Methyl-1H-indazol-6-yl)-1-phenylmethanesulfonamide] | > 100 µM | – | – |
| CCCCS(=O)(=O)Nc1ccc2cnn(C(C)C)c2c1 [5a-5, N-(1-Isoproply-1H-indazol-6-yl)butane-1-sulfonamide] | > 100 µM | – | MLM stability clint [2]: 789 μl/mi/mg protein; half-life (in vitro [3]; MLM stability t1/2): 0.878 min; half-life (in vitro [3]; [5]): > 3060 min; solubility kinetic (physchem): > 500 µM |
| Cn1ncc2ccc(NS(C)(=O)=O)cc21 [5a-8, N-(1-Methyl-1H-indazol-6-yl)methanesulfonamide] | > 100 µM | – | – |
| O=[N+]([O-])c1cn2c(n1)OC[C@@H](OCc1ccc(OC(F)(F)F)cc1)C2 [PA824] | 0.1 µM (≈ 0.0359 µg/mL) | – | – |
| CCCCNC(=S)Nc1ccc2cnn(C)c2c1 [5b-1, 1-Butyl-3-(1-methyl-1H-indazol-6-yl)thiourea] | 3.1 µM (≈ 0.813 µg/mL) | 25 µM | MLM stability clint [2]: 595 μl/mi/mg protein; half-life (in vitro [3]; MLM stability t1/2): 1.17 min; half-life (in vitro [3]; [5]): > 3060 min; solubility kinetic (physchem): 131 µM (≈ 34.4 µg/mL) |
| COc1nc2ccc(Br)cc2cc1[C@@H](c1ccccc1)[C@@](O)(CCN(C)C)c1cccc2ccccc12 [BDQ, bedaquiline] | 1 µM (≈ 0.556 µg/mL) | – | – |
| CCCCC(=O)Nc1ccc2cnn(C)c2c1 [5c-2, N-(1-Methyl-1H-indazol-6-yl)pentanamide] | > 100 µM | – | MLM stability clint [2]: 1,040 μl/mi/mg protein; half-life (in vitro [3]; MLM stability t1/2): 0.668 min; half-life (in vitro [3]; [5]): 13.1 min; solubility kinetic (physchem): > 500 µM |
| Cn1ncc2ccc(NS(=O)(=O)C3CCCCC3)cc21 [5a-26, N-(1-Methyl-1H-indazol-6-yl)cyclohexanesulfonamide] | 12.5 µM (≈ 3.67 µg/mL) | – | – |
| CCCCOC(=O)Nc1ccc2cnn(C)c2c1 [5d-3, Butyl (1-methyl-1H-indazol-6-yl)carbamate] | > 100 µM | 25 µM | – |
| CCc1cc(C(N)=S)ccn1 [ETH, ethionamide] | 25 µM (≈ 4.16 µg/mL) | – | – |

| SMILES | MIC (M. tuberculosis H37Rv; [4]) | CC50 (in vitro [1]) | further results |
| --- | --- | --- | --- |
| COc1c(N2C[C@@H]3CCCN[C@@H]3C2)c(F)cc2c(=O)c(C(=O)O)cn(C3CC3)c12 [Moxi, moxifloxacin] | 0.03 µM (≈ 0.012 µg/mL) | – | – |
| CCCCS(=O)(=O)Nc1ccc2cnn(-c3ccccc3)c2c1 [5a-6, N-(1-Phenyl-1H-indazol-6-yl)butane-1-sulfonamide] | > 100 µM | – | MLM stability clint [2]: 1,370 μl/mi/mg protein; half-life (in vitro [3]; MLM stability t1/2): 0.505 min; half-life (in vitro [3]; [5]): > 3060 min; solubility kinetic (physchem): 33.7 µM (≈ 11.1 µg/mL) |
| CCS(=O)(=O)Nc1ccc2cnn(C)c2c1 [5a-9, N-(1-Methyl-1H-indazol-6-yl)ethanesulfonamide] | > 100 µM | – | – |
| CCCCCCS(=O)(=O)Nc1ccc2cnn(C)c2c1 [5a-13, N-(1-Methyl-1H-indazol-6-yl)hexane-1-sulfonamide] | > 100 µM | > 170 µM | – |
| CCCCCS(=O)(=O)Nc1ccc2cnn(C)c2c1 [5a-12, N-(1-Methyl-1H-indazol-6-yl)pentane-1-sulfonamide] | 0.2 µM (≈ 0.0563 µg/mL) | > 100 µM | improvement in MIC/whole-cell activity over DG167 (M. tuberculosis H37Rv): 2 fold |
| [2H]C([2H])([2H])n1ncc2ccc(NS(=O)(=O)CCCCC)cc21 [5a-31, N-(1-(Methyl-d3)-1H-indazol-6-yl)pentane-1-sulfonamide] | 0.2 µM (≈ 0.0569 µg/mL) | > 100 µM | improvement in MIC/whole-cell activity over DG167 (M. tuberculosis H37Rv): 2 fold |
| CC(C)=CCC/C(C)=C/CNCCNC1C2CC3CC(C2)CC1C3 (stereo not shown) [SQ109] | 0.8 µM (≈ 0.264 µg/mL) | – | – |
| CC[C@@H](CO)NCCN[C@@H](CC)CO [EMB, ethambutol] | 0.78 µM (≈ 0.159 µg/mL) | – | – |
| CCCC(C)S(=O)(=O)Nc1ccc2cnn(C)c2c1 (stereo not shown) [5a-18, N-(1-Methyl-1H-indazol-6-yl)pentane-2-sulfonamide] | > 100 µM | > 100 µM | – |
| CCCC(CC)S(=O)(=O)Nc1ccc2cnn(C)c2c1 (stereo not shown) [5a-17, N-(1-Methyl-1H-indazol-6-yl)hexane-3-sulfonamide] | > 100 µM | > 100 µM | – |
| CCCCS(=O)(=O)Nc1ccc2cnn(CCC)c2c1 [5a-4, N-(1-Propyl-1H-indazol-6-yl)butane-1-sulfonamide] | > 100 µM | – | MLM stability clint [2]: 921 μl/mi/mg protein; half-life (in vitro [3]; MLM stability t1/2): 0.753 min; half-life (in vitro [3]; [5]): > 3060 min; solubility kinetic (physchem): 130 µM (≈ 38.4 µg/mL) |
| CC(C)CCCS(=O)(=O)Nc1ccc2cnn(C)c2c1 [5a-19, 4-Methyl-N-(1-methyl-1H-indazol-6-yl)pentane-1-sulfonamide] | > 100 µM | – | – |
| [2H]C([2H])([2H])n1ncc2ccc(NS(=O)(=O)CCCC)cc21 [5a-30, N-(1-(Methyl-d3)-1H-indazol-6-yl)butane-1-sulfonamide] | – | 180 µM | MLM stability clint [2]: 41.3 μl/mi/mg protein; half-life (in vitro [3]): 16.8 min; half-life (in vitro [3]; [5]): > 3060 min; solubility kinetic (physchem): > 500 µM |
| Cn1ncc2ccc(NS(=O)(=O)C3CCC3)cc21 [5a-24, N-(1-Methyl-1H-indazol-6-yl)cyclobutanesulfonamide] | > 100 µM | – | – |
| CCCCNC(=O)Nc1ccc2cnn(C)c2c1 [5b-2, 1-Butyl-3-(1-methyl-1H-indazol-6-yl)urea] | > 100 µM | – | – |
| CCCOC(=O)Nc1ccc2cnn(C)c2c1 [5d-2, n-propyl (1-methyl-1H-indazol-6-yl)carbamate] | > 100 µM | 6.7 µM | – |
| Cn1ncc2ccc(NS(=O)(=O)C3CCC(C(F)(F)F)CC3)cc21 (stereo not shown) [5a-27, N-(1-Methyl-1H-indazol-6-yl)-4-(trifluoromethyl)cyclohexane-1-sulfonamide] | > 100 µM | – | – |
| CCC(=O)Nc1ccc2cnn(C)c2c1 [5c-1, N-(1-methyl-1H-indazol-6-yl)propionamide] | > 100 µM | – | MLM stability clint [2]: 536 μl/mi/mg protein; half-life (in vitro [3]; MLM stability t1/2): 1.29 min; solubility kinetic (physchem): 472 µM (≈ 95.9 µg/mL) |
| Cn1ncc2ccc(NS(=O)(=O)C3CC3)cc21 [5a-23, N-(1-Methyl-1H-indazol-6-yl)cyclopropanesulfonamide] | > 100 µM | – | – |
| CC(C)S(=O)(=O)Nc1ccc2cnn(C)c2c1 [5a-11, N-(1-Methyl-1H-indazol-6-yl)propane-2-sulfonamide] | > 100 µM | – | – |
| Cn1ncc2ccc(NS(=O)(=O)CCCCC#N)cc21 [5a-14, 4-Cyano-N-(1-methyl-1H-indazol-6-yl)butane-1-sulfonamide] | 3.1 µM (≈ 0.906 µg/mL) | > 100 µM | – |
| Cn1ncc2ccc(NS(=O)(=O)CCc3ccccc3)cc21 [5a-22, N-(1-Methyl-1H-indazol-6-yl)-2-phenylethane-1-sulfonamide] | > 100 µM | 19.8 µM | – |
